Source: patent US20260008793A1, “IONIZABLE CATIONIC LIPIDS INCORPORATING SILICON” (ALDEXCHEM KFT., priority 2022, published 2026)

Tests used:
[1] = Encapsulation efficiency, RiboGreen RNA assay (Method A); type: physicochemical; conditions: LNP formulated by Method A
Experimental: (§1) The synthesized lipids were tested in term of in vitro transfection efficacy and toxicity on HeLa cells. In order to perform the mentioned biological tests, appropriate LNPs had to be formulated from the synthesized lipids. The formulation technique was different in Method A and B. The particle size, PDI and zeta potential of resulting LNPs were determined by means of Dynamic Light Scattering technique (DLS). Prior to biological testing the encapsulation efficiency (EE) of the loaded LNPs was determined by using RiboGreen RNA assay. In case of Method A Luciferase-mRNA while in case of Method B GFP-mRNA was transfected into the cells. In parallel with the transfection experiments, toxicity of the investigated LNPs was determined, in case of Method A resazurin assay while in case of Method B MTT assay was used. In the case of some lipids, the apparent pKa in LNPs was determined by using TNS titration based on the method described: Angew Chem Int Ed Engl. 2012, 51 (34), 8529-8533, doi: 10.1002/anie.201203263).
• 1. Preparation of sample stock solutions: In the top row of the 96-well plate (Row A in the plate), add 297 μL of TE buffer pH 7.4 to a single well for each sample plus a single well for a PBS blank using a multichannel pipette. • 2. Add 3 μL of sample (at 0.5 mg/ml) to these wells for a final volume of 300 μL. Add 3 μL of PBS to the blank well. Pipette to mix. This is your stock solution for each sample. The final RNA concentration of these stock solutions should be approximately 4-7 μg/mL. • 3. mRNA-LNP sample setup: • a. Add 50 μL of TE buffer pH 7.5 to the two wells directly below each sample (Rows B and C in the plate). • b. Add 50 μL of sample stock solution from Row A into the wells in Rows B and C (this assay is run in duplicate. All liquid handling should be done using a multichannel pipette). • c. Add 50 μL of Triton buffer to the wells in Rows D and E (in the plate) below each sample. • d. Add 50 μL of sample stock solution from Row A into the wells in Rows D and E. • 4. RiboGreen RNA standard curve setup: Dilute the RNA standard to produce an RNA stock at a final concentration of 20 μg/mL in TE buffer pH 7.4. The final volume should be 150 μL. Set up a standard curve (in duplicate) as using the RNA stock (20 μg/mL siRNA), TE buffer pH 7.5, and Triton buffer according the Table 2 below.
• 5. Once samples and standard curve are plated, incubate the plate at 37° C. for 10 min to lyse mRNA-LNP in the presence of Triton X-100. • 6. Meanwhile, prepare RiboGreen Solution: Sum the total number of sample wells and standard curve wells. Add three to this number, and multiply the total by 100. This is the total volume, in μL, of RiboGreen Solution needed for this assay. In a 15 mL RNAse-free Falcon tube, dilute the RiboGreen Reagent 1:100 into TE buffer pH 7.5 to the total volume calculated. • 7. Addition of RiboGreen Solution and sample readings: Remove a 96-well plate from 37° C. incubator; let it cool to room temperature as RiboGreen binding is somewhat temperature dependent. Add 100 μL of RiboGreen Solution to each well. Pop any air bubbles with a needle. Read using fluorescent plate reader (excitation=480, emission=525). • 8. Sample analysis: Use the data generated by the RiboGreen standard curve to calculate the concentration of mRNA. Transfection Efficiency with Luciferase-mRNA (Method A)

[2] = LNP size, PDI and zeta potential by Dynamic Light Scattering (Method A); type: physicochemical; conditions: LNP formulated by Method A; for Zeta potential (mV): 1xPBS pH 7.4; for PDI / Size (nm): DLS; for Size (nm): Luciferase-mRNA loaded
Experimental: as §1
• 1. If needed, prepare stock solutions by solving known amounts of lipid powder into an appropriate solvent. The recommended solvent is Ethanol and the recommended concentration is typically in the range 10-50 mM. Higher concentrations are preferred to allow flexibility on mRNA-LNP concentration. • 2. Remove the lipid stock solutions from the −20° C. freezer. For long-term storage, −80° C. is used. • 3. Check the vials for precipitation, DOPE (CAS #4004-05-1) (20 mM) and DSPE-PEG (CAS #474922-26-4) (5 mM) may need a 5-30 minute incubation step at 37° C. with intermittent vortexing to resuspend all contents. […] As a last resort, lipids may be heated to 50° C. to resuspend, time should be kept as short as possible to prevent oxidation or other modifying or degradative processes. • 4. Mix the lipids by vortexing for 2 minutes. • 5. […] Cooling the solution prevent excessive evaporation of ethanol or similar solvents upon opening. • 6. Meanwhile, thaw the RNA samples, including the latest SecNLuc control, by inserting the frozen tube in a room temperature aluminium block. • 7. Prepare for each LNP-formulation with identical mRNA component, an RNA master mix according to Table 1 below in a fresh tube. Use of a master mix allows more precise comparison of lipid formulations relative to each other. Split the master mix over a number of fresh tubes equal to the number of samples+controls. Each tube contains 375 μl of mRNA in 10 mM Citrate pH 4.0. • 8. Prepare for each LNP formulation with identical lipid composition a Lipid master mix according to Table 1 below in a fresh tube, exclude the lipid of interest. Use of a master mix allows more precise comparison of the novel ionizable lipid relative to each other. Split the master mix over a number of fresh tubes equal to the number of samples+controls. Each tube contains 65.5 μl of lipid master mix. • 9. Add the ionizable lipid of interest to the equally divide lipid master mix. Mix well by pipetting up and down. Label the tube according to the ionizable lipid used. • 10. Power on the ‘L 1 formulation machine’ (L 1 FM) and allow it to do a calibration of motor positions.
• 18. Fill a fresh syringe (C) through a blunt 18 G stainless steel needle with the previously prepared RNA mixture of step 6. The volume should be approximately […] of total formulation volume+25 μl (dead-volume). Make sure to remove all air bubbles by tapping. • 19. Fill a fresh syringe (D) through a blunt 18 G stainless steel needle with the Lipid master mix. The volume should be approximately 35% of total formulation volume+25 μl (dead-volume). Again, Make sure to remove all bubbles. • 20. Attach the syringes in the correct orientation, syringe A on the left and syringe B on the right • 21. Load the ‘Receiving station’ with appropriate sized collection containers (2 ml Eppendorf tubes). • 22. Press the microfluidic chip to the back of the machine with your thumb and hold, press the ‘Button 1’ (40 g). […]

| Structure (SMILES) | EE (%) [1] [%] | Zeta potential (mV) [2] [mV] | PDI [2] | Size (nm) [2] [nm] |
| --- | --- | --- | --- | --- |
| CCCCCCCCC(CCCCCC)C(=O)OCCCCCCN(CCCCO)CCCCCCOC(CCCCCCC)O[Si](C)(C)CCCCCCCC (stereo not shown) [Example 129, 15-heptyl-7-(4-hydroxybutyl)-17,17-dimethyl-14,16-dioxa-7-aza-17-silapentacosyl 2-hexyldecanoate] | 96 | −12.48 | 0.054 | 132.9 |
| CCCCCCCCOC(CCCCCN(CCCCO)CCCCCCOC(=O)C(CCCCCC)CCCCCCCC)O[Si](C)(C)OCCCCCCCC (stereo not shown) [Example 130, 7-(4-hydroxybutyl)-15,15-dimethyl-13-(octyloxy)-14,16-dioxa-7-aza-15-silatetracosyl 2-hexyldecanoate] | 90 | −11.85 | 0.418 | 587.6 |
| CCCCCCCCO[Si](C)(C)OC(CCCCCCC)OCCCCCCN(CCCCO)CCCCCCOC(=O)C(CCCCCC)CCCCCCCC (stereo not shown) [Example 131, 15-heptyl-7-(4-hydroxybutyl)-17,17-dimethyl-14,16,18-trioxa-7-aza-17-silahexacosyl 2-hexyldecanoate] | 95 | −16.95 | 0.219 | 244.2 |
| CCCCCCCCC(CCCCCC)C(=O)OCCCCCCN(CCCCO)CCCCCCOC(CCCCCCC)O[Si](C)(C)O[Si](C)(C)CCCCCCCC (stereo not shown) [Example 133, 15-heptyl-7-(4-hydroxybutyl)-17,17,19,19-tetramethyl-14,16,18-trioxa-7-aza-17,19-disilaheptacosyl 2-hexyldecanoate] | 97 | −10.68 | 0.039 | 135.7 |
| CCCCCCCCOC(CCCCCN(CCCCO)CCCCCCOC(=O)C(CCCCCC)CCCCCCCC)O[Si](C)(C)O[Si](C)(C)OCCCCCCCC (stereo not shown) [Example 134, 6-((4-hydroxybutyl)(6-(octyloxy)-6-((1,1,3,3-tetramethyl-3-(octyloxy)disiloxaneyl)oxy)hexyl)amino)hexyl 2-hexyldecanoate] | 98 | −11.99 | 0.006 | 145.8 |
| CCCCCCCCO[Si](C)(C)O[Si](C)(C)OC(CCCCCCC)OCCCCCCN(CCCCO)CCCCCCOC(=O)C(CCCCCC)CCCCCCCC (stereo not shown) [Example 135, 15-heptyl-7-(4-hydroxybutyl)-17,17,19,19-tetramethyl-14,16,18,20-tetraoxa-7-aza-17,19-disilaoctacosyl 2-hexyldecanoate] | 91 | −16.11 | 0.158 | 271.2 |
| CCCCCCCCOC(CCCCCN(CCCCO)CCCCCCOC(=O)C(CCCCCC)CCCCCCCC)O[Si](C)(C)OCC(CCCCCC)CCCCCCCC (stereo not shown) [Example 136, 18-hexyl-7-(4-hydroxybutyl)-15,15-dimethyl-13-(octyloxy)-14,16-dioxa-7-aza-15-silahexacosyl 2-hexyldecanoate] | 90 | −13.28 | 0.259 | 305.2 |
| CCCCCCCCC(CCCCCC)CO[Si](C)(C)OC(CCCCCCC)OCCCCCCN(CCCCO)CCCCCCOC(=O)C(CCCCCC)CCCCCCCC (stereo not shown) [Example 137, 15-heptyl-20-hexyl-7-(4-hydroxybutyl)-17,17-dimethyl-14,16,18-trioxa-7-aza-17-silaoctacosyl 2-hexyldecanoate] | 97 | −16.61 | 0.096 | 169.2 |
| CCCCCCCCOC(CCCCCCC)O[Si](C)(C)CCCCCCN(CCCCO)CCCCCCOC(=O)C(CCCCCC)CCCCCCCC (stereo not shown) [Example 138, 16-heptyl-7-(4-hydroxybutyl)-14,14-dimethyl-15,17-dioxa-7-aza-14-silapentacosyl 2-hexyldecanoate] | 95 | −16.19 | 0.104 | 211.7 |
| CCCCCCCCOC(CCCCCCC)O[Si](C)(C)OCCCCCCN(CCCCO)CCCCCCOC(=O)C(CCCCCC)CCCCCCCC (stereo not shown) [Example 139, 17-heptyl-7-(4-hydroxybutyl)-15,15-dimethyl-14,16,18-trioxa-7-aza-15-silahexacosyl 2-hexyldecanoate] | 94 | −12.3 | 0.14 | 137.4 |
| CCCCCCCCC(CCCCCC)C(=O)OCCCCCCN(CCCCO)CCCCCCO[Si](C)(C)OC(CCCCCCC)OCCCCCCC (stereo not shown) [Example 140, 17-heptyl-7-(4-hydroxybutyl)-15,15-dimethyl-14,16,18-trioxa-7-aza-15-silapentacosyl 2-hexyldecanoate] | 93 | −4.5 | 0.05 | 130.8 |
| CCCCCCCCCOC(CCCCCCC)O[Si](C)(C)OCCCCCCN(CCCCO)CCCCCCOC(=O)C(CCCCCC)CCCCCCCC (stereo not shown) [Example 141, 17-heptyl-7-(4-hydroxybutyl)-15,15-dimethyl-14,16,18-trioxa-7-aza-15-silaheptacosyl 2-hexyldecanoate] | 95 | −10.6 | 0.11 | 129.5 |
| CCCCCCCCOC(CCCCCC)O[Si](C)(C)OCCCCCCN(CCCCO)CCCCCCOC(=O)C(CCCCCC)CCCCCCCC (stereo not shown) [Example 142, 17-hexyl-7-(4-hydroxybutyl)-15,15-dimethyl-14,16,18-trioxa-7-aza-15-silahexacosyl 2-hexyldecanoate] | 96 | −12.8 | 0.06 | 125.1 |
